The structures appear in SMILES notation.

The values that follow come from ChEMBL document CHEMBL5360567, “Modulating leishmanial pteridine metabolism machinery via some new coumarin-1,2,3-triazoles: Design, synthesis and computational studies” (Eur J Med Chem, 2023).

Data set [1] concerns Leishmania major. Kind of data set: Potency index, ratio of iC50 for miltefosine IC50 to test compound IC50 for antileishmanial activity against Leishmania major promastigotes. It is filed as functional.
Data set [2] deals with Leishmania major. The experiment in a line: Antileishmanial activity against Leishmania major amastigotes incubated for 24 hrs measured by alamar blue staining based fluorescence analysis. The class given is functional, organism-based.
The test system of data set [3] is Leishmania major. Kind of data set: Antileishmanial activity against Leishmania major promastigotes incubated for 24 hrs measured by alamar blue staining based fluorescence analysis. It is filed as functional, organism-based.
Data set [4] has as its system Leishmania major. The experiment in a line: Reversal of antileishmanial activity against Leishmania major promastigotes assessed as parasite survival at IC50 preincubated with 100 uM folinic acid for 1 hr followed by compound incubated for 48 hrs (reference value: 24%). The class given is functional.
Data set [5] can be described thus: Selectivity index, ratio of CC50 for green monkey Vero cells to IC50 for antileishmanial activity against Leishmania major amastigotes. The conditions noted are these: read-out: Ratio CC50/IC50. It is filed as toxicity, cell-based.
Data set [6] can be described thus: Cytotoxicity against green monkey Vero cells incubated for 72 hrs by crystal violet staining analysis. It is filed as toxicity, cell-based. The conditions noted are these: chlorocebus sabaeus.
The subject of data set [7] is Leishmania major. Kind of data set: Reversal of antileishmanial activity against Leishmania major promastigotes assessed as parasite survival at IC50 preincubated with 20 uM folic acid for 1 hr followed by compound incubated for 48 hrs (reference value: 24%). The class given is functional.
The test system of data set [8] is Leishmania major. Kind of data set: Reversal of antileishmanial activity against Leishmania major promastigotes assessed as parasite survival at IC50 preincubated with 100 uM folic acid for 1 hr followed by compound incubated for 48 hrs (reference value: 24%). The class given is functional.
Data set [9] relates to Leishmania major. Kind of data set: Reversal of antileishmanial activity against Leishmania major promastigotes assessed as parasite survival at IC50 preincubated with 20 uM folinic acid for 1 hr followed by compound incubated for 48 hrs (reference value: 24%). It is filed as functional.
In data set [10] the test system is Leishmania major. Kind of data set: Antileishmanial activity against Leishmania major promastigotes incubated for 24 hrs measured by alamar blue staining based fluorescence analysis relative to control. The class given is functional.
The subject of data set [11] is Leishmania major. Kind of data set: Antileishmanial activity against Leishmania major amastigotes incubated for 24 hrs measured by alamar blue staining based fluorescence analysis relative to control. The class given is functional.
Data set [12] has as its system Leishmania major. The experiment in a line: Reversal of antileishmanial activity against Leishmania major promastigotes assessed as parasite survival at IC50 preincubated with 100 uM folinic acid for 1 hr followed by compound incubated for 48 hrs (reference value: 22%). It is filed as functional.
Data set [13] has as its system Leishmania major. Kind of data set: Reversal of antileishmanial activity against Leishmania major promastigotes assessed as parasite survival at IC50 preincubated with 100 uM folic acid for 1 hr followed by compound incubated for 48 hrs (reference value: 22%). It is filed as functional.
Data set [14] relates to Leishmania major. The experiment in a line: Reversal of antileishmanial activity against Leishmania major promastigotes assessed as parasite survival at IC50 preincubated with 20 uM folinic acid for 1 hr followed by compound incubated for 48 hrs (reference value: 22%). The class given is functional.
The subject of data set [15] is Leishmania major. Kind of data set: Potency index, ratio of IC50 for miltefosine IC50 to test compound IC50 for antileishmanial activity against Leishmania major amastigotes. The class given is functional.
Data set [16] concerns Leishmania major. Kind of data set: Reversal of antileishmanial activity against Leishmania major promastigotes assessed as parasite survival at IC50 preincubated with 20 uM folic acid for 1 hr followed by compound incubated for 48 hrs (reference value: 22%). It is filed as functional.
In data set [17] the test system is Leishmania major. The experiment in a line: Reversal of antileishmanial activity against Leishmania major promastigotes assessed as parasite survival at IC50 preincubated with 20 uM folinic acid for 1 hr followed by compound incubated for 48 hrs (reference value: 20%). The class given is functional.
Data set [18] concerns Leishmania major. The experiment in a line: Reversal of antileishmanial activity against Leishmania major promastigotes assessed as parasite survival at IC50 preincubated with 20 uM folic acid for 1 hr followed by compound incubated for 48 hrs (reference value: 20%). It is filed as functional.
The test system of data set [19] is Leishmania major. Kind of data set: Reversal of antileishmanial activity against Leishmania major promastigotes assessed as parasite survival at IC50 preincubated with 100 uM folic acid for 1 hr followed by compound incubated for 48 hrs (reference value: 20%). It is filed as functional.
In data set [20] the test system is Leishmania major. Kind of data set: Reversal of antileishmanial activity against Leishmania major promastigotes assessed as parasite survival at IC50 preincubated with 100 uM folinic acid for 1 hr followed by compound incubated for 48 hrs (reference value: 20%). It is filed as functional.
In data set [21] the test system is Leishmania tropica. The experiment in a line: Antileishmanial activity against Leishmania tropica promastigotes incubated for 24 hrs measured by alamar blue staining based fluorescence analysis. It is filed as functional, organism-based.
The subject of data set [22] is Leishmania tropica. Kind of data set: Antileishmanial activity against Leishmania tropica amastigotes incubated for 24 hrs measured by alamar blue staining based fluorescence analysis. It is filed as functional, organism-based.

Consider `CCCCOc1ccc2cc(/C(C)=N/OCCCCCCn3cc(CN4CCCCC4)nn3)c(=O)oc2c1`, for which the “Ratio IC50” value in the data set on Leishmania major [1] stood at 2. Moreover, the IC50 in the data set on Leishmania major [2] was determined as 4470 nM; with Leishmania major [3], 3870 nM.
With `CCCCOc1ccc2cc(C(=O)NCCCCCCn3cc(CN4CCCC4)nn3)c(=O)oc2c1`, the Activity with Leishmania major [4] was found to be 94%; in the data set on Leishmania major [7], 76%; in the data set with Leishmania major [8], 84%; in the data set on Leishmania major [9], 83%. Also, in [5], the selectivity ratio was 311. In addition, the “Ratio IC50” value in the data set with Leishmania major [1] stood at 13. For the same compound, the CC50 at 72 h in [6] was determined as 252000 nM. Also, the figures for the IC50 with Leishmania major [2] and in the data set with Leishmania major [3] were 810 nM and 590 nM, respectively.
As to `CCCCOc1ccc2cc(C(=O)NCCCCCCn3cc(CN4C(=O)CSC4=O)nn3)c(=O)oc2c1`, the “Ratio IC50” value in the data set with Leishmania major [1] turned out to be 3. Also, the results for the IC50 with Leishmania major [2] and with Leishmania major [3] were 3880 nM and 2270 nM, respectively. The Activity in the data set on Leishmania major [10] was 30%; with Leishmania major [11], 48%.
On to `CCCCOc1ccc2cc(/C(C)=N/OCCCCCCn3cc(CN4CCCC4)nn3)c(=O)oc2c1`, for which, in [5], the selectivity ratio is 496. The “Ratio IC50” value in the data set on Leishmania major [1] stood at 10; in the data set on Leishmania major [15], 8. Moreover, the CC50 at 72 h in data set [6] was 490000 nM. The Activity in the data set on Leishmania major [12] is on record as 87%; in the data set with Leishmania major [13], 81%; in the data set with Leishmania major [14], 79%; with Leishmania major [16], 74%. The IC50 in the data set with Leishmania major [2] was determined as 990 nM; in the data set on Leishmania major [3], 780 nM.
In the case of `CCCCOc1ccc2cc(C(=O)NCCCCCCn3cc(CN4CCOCC4)nn3)c(=O)oc2c1`, the selectivity ratio in data set [5] stood at 359. Also, the “Ratio IC50” value in the data set with Leishmania major [1] is recorded as 20. The Activity with Leishmania major [17] came out at 88%; with Leishmania major [18], 82%; in the data set with Leishmania major [19] it was 91%; in the data set on Leishmania major [20], 91%. Moreover, the CC50 at 72 h in data set [6] is 244000 nM. Further, the 50% inhibitory concentration (IC50) in the data set on Leishmania major [2] came to 680 nM; in the data set on Leishmania major [3], 400 nM.
In the case of `CCCCOc1ccc2cc(C(=O)NCCCCCCn3cc(CSC4=NC(=O)CS4)nn3)c(=O)oc2c1`, the “Ratio IC50” value in the data set on Leishmania major [1] is on record as 3. The IC50 was 3860 nM in the data set on Leishmania major [2] and 2350 nM in the data set with Leishmania major [3]. For the same compound, the figures for the Activity with Leishmania major [10] and in the data set on Leishmania major [11] were 30% and 48%, respectively.
As for `CCCCOc1ccc2cc(/C(C)=N/OCCCCCCn3cc(CSC4=NC(=O)CS4)nn3)c(=O)oc2c1`, the “Ratio IC50” value in the data set on Leishmania major [1] is listed as 2. Also, the figures for the IC50 in the data set with Leishmania major [2] and in the data set on Leishmania major [3] were 4840 nM and 3730 nM, respectively.
For `O=C(N/N=C1\C(=O)N(CC(O)COc2cc(=O)oc3ccccc23)c2ccccc21)c1ccncc1` (stereo not given), the IC50 in the data set on Leishmania tropica [21] stood at 100 nM; in the data set with Leishmania tropica [22], 870 nM.
`CCCCOc1ccc2cc(C(=O)NCCCCCCn3cc(CN4CCCCC4)nn3)c(=O)oc2c1`: the “Ratio IC50” value in the data set with Leishmania major [1] came to 7. The IC50 in the data set with Leishmania major [2] came out at 1830 nM; in the data set on Leishmania major [3], 1210 nM.
Regarding `CCCCOc1ccc2cc(/C(C)=N/OCCCCCCn3cc(CN4C(=O)CSC4=O)nn3)c(=O)oc2c1`, in the data set with Leishmania major [1], the “Ratio IC50” value came to 3. For the same compound, the IC50 in the data set on Leishmania major [2] was determined as 3900 nM; in the data set with Leishmania major [3], 2830 nM.
In the case of `CCCCOc1ccc2cc(/C(C)=N/OCCCCCCn3cc(CN4CCOCC4)nn3)c(=O)oc2c1`, in the data set with Leishmania major [1], the “Ratio IC50” value is reported as 2. Besides, the IC50 in the data set with Leishmania major [2] was determined as 5290 nM; with Leishmania major [3], 4630 nM.
